The source of these data is article PMC4224572, “Peptidomimetic inhibitors of N-myristoyltransferase from human malaria and leishmaniasis parasites” (Organic & Biomolecular Chemistry, 2014).

Ends that are not written are not given here. Some results are limits rather than exact numbers.

Usually pKa stands for the negative logarithm of the acid dissociation constant. The term IC50 denotes the concentration that gives 50% inhibition. A word on the Km: it is the concentration of substrate that gives half-maximal velocity.

Details of data set [1]: method as in earlier work. The settings on record: cited from earlier work.
The test system of a further data set is Leishmania NMT. In words: Substrate characteristics in Leishmania NMT. It counts as biochemical. The settings on record: for KM as substrate / Vmax as substrate / Km: Leishmania NMT; for substrate activity: compound 10 tested up to 40 μM; for Km: read-out: KM as substrate. The procedure: (§1) Unexpectedly, the electron maps indicated a mixture of ligand structures such that ∼20% of the electron density represents a N-myristoylated 10 product complex with the CoA by-product in LmNMT (Fig. 2D). This is the only structural evidence for a product complex in any N-myristoyltransferase, and captures and supports the proposed mechanism of action of NMT just prior to regeneration of the active enzyme. Kinetic experiments were performed to study 10 both as a potential substrate and as an NMT inhibitor. […] The N-myristoylation of 10 observed above therefore presumably occurs within the crystal where all reagents are present at high effective concentrations, and turnover is blocked by limited egress of products.
To probe the degree to which 10 acts as a true peptidomimetic, we investigated the potential to switch from inhibitor to a peptidomimetic substrate. […] In native NMT substrates, N-terminal Gly is preferred to the exclusion of all other residues, with relatively non-sterically demanding residues such as alanine. […]
(§2) [Substrate] (µM) [S b[Substrate] (µM) tt ]
Hs pp60src(2-9) Compound 10 Compound 27 Compound 28
Figure S4: Substrate characteristics of H. sapiens p60src(2-16), compound 10 and modified
inhibitors 27 and 28 in Leishmania NMT.

Another data set concerns the target T1, PfNMT (Plasmodium falciparum, UniProt Q9U419).
T1 sequence (Q9U419 1-410): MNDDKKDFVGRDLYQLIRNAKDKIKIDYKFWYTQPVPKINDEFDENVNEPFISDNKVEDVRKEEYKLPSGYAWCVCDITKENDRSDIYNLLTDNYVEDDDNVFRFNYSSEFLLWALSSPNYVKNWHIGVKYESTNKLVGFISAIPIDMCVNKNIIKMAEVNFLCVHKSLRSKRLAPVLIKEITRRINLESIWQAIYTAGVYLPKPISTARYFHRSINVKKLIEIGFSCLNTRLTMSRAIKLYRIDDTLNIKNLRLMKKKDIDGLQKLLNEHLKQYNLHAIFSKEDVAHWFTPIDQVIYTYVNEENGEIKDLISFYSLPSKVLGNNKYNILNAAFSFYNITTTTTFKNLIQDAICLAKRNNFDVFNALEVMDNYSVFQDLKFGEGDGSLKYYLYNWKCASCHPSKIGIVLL
The data set can be described thus: Fluorogenic NMT inhibition assay, PfNMT. It counts as biochemical. The settings on record: recombinant enzyme; mean of duplicate or triplicate experiments. The source says: (§3) 2-Methylimidazolyl analogues were synthesized building on the hypothesis that 2-methylimidazole (pK a ∼ 7.9)[18] is a reasonable mimetic for N-terminal Gly in the peptide substrate (pK a ∼ 8.0).[19] To cover a range of basicity, imidazolyl (pK a ∼ 7.0) and amine analogues (pK a ∼ 10.0) were also synthesized, each exploring a range of chain lengths (n) (Table 1). To probe versatility at the C-terminus, primary amides, carboxylic acids, 2-cyclohexylethyl and 2-(1-cyclohexenyl)ethyl amides were incorporated. Using a previously reported fluorogenic assay,[20] inhibitors were tested against the parasitic enzymes and HsNMT1 in order to explore their selectivity against a relevant host enzyme. […] Further reduction of the chain length (11 and 12, n = 8 and 7, respectively) led to loss of detectable activity against Plasmodium NMTs and significant loss of activity against LdNMT and HsNMT1.

In data set [2] the target is T2, PvNMT (Plasmodium vivax, UniProt A5K1A2).
T2 sequence (A5K1A2 1-410): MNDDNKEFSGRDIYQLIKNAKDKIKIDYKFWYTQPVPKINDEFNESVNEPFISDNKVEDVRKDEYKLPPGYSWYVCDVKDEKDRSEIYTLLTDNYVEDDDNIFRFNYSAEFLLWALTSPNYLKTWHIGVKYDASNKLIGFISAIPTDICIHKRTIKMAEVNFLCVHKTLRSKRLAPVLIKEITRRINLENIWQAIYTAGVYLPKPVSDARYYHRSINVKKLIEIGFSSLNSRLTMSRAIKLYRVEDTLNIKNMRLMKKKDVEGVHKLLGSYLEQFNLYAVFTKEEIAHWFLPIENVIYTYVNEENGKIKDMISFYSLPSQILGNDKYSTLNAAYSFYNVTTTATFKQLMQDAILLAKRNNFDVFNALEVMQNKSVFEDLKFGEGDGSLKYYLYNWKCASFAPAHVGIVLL
In words: Kinetic assay and Lineweaver-Burk plot, competitiveness of compound 10. In kind it is biochemical. On the procedure:
as §1, with “products. […]” for “products.”
3. Kinetic studies of Compound 10. […]
1 / [Sub s tr ate] Rate / [Su b s tr ate]
No inhibitor 0.6 μM 1.2 μM 2.4 μM
Figure S3: Kinetic assay and Lineweaver-Burk plot studying the competitiveness of
as §2

In a further data set the target is T3, HsNMT1 (Homo sapiens, UniProt P30419).
T3 sequence (P30419 1-496): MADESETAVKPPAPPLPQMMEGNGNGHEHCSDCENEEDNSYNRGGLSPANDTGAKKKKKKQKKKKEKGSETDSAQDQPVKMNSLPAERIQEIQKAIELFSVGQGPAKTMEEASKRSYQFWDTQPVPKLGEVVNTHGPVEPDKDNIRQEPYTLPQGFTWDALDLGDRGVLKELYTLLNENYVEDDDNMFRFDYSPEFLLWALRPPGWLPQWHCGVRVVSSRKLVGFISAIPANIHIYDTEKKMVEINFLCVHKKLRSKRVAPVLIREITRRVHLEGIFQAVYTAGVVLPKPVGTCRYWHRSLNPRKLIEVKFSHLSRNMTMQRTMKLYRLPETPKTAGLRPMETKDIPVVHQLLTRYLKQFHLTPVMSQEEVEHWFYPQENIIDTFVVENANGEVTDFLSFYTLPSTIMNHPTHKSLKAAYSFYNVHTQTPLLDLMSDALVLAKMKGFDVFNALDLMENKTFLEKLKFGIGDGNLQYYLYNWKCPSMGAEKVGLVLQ
The data set can be described thus: Fluorogenic NMT inhibition assay, HsNMT1. It counts as biochemical, H. sapiens. The settings on record: mean of duplicate or triplicate experiments. From the text: 2-Methylimidazolyl analogues were synthesized building on the hypothesis that 2-methylimidazole (pK a ∼ 7.9)[18] is a reasonable mimetic for N-terminal Gly in the peptide substrate (pK a ∼ 8.0).[19] To cover a range of basicity, imidazolyl (pK a ∼ 7.0) and amine analogues (pK a ∼ 10.0) were also synthesized, each exploring a range of chain lengths (n) (Table 1). To probe versatility at the C-terminus, primary amides, carboxylic acids, 2-cyclohexylethyl and 2-(1-cyclohexenyl)ethyl amides were incorporated. Using a previously reported fluorogenic assay,[20] inhibitors were tested against the parasitic enzymes and HsNMT1 in order to explore their selectivity against a relevant host enzyme.

For data set [3], the target named is T2, PvNMT. In words: Fluorogenic NMT inhibition assay, PvNMT. The conditions noted are these: recombinant enzyme; mean of duplicate or triplicate experiments. In kind it is biochemical.
From the text: as §3

Another data set deals with LdNMT. The data set can be described thus: Fluorogenic NMT inhibition assay, LdNMT. In kind it is biochemical, L. donovani.
From the text: as §3

A further data set concerns CaNMT. Details: method as in PMID 7783114. The conditions noted are these: read-out: KM as CaNMT substrate; cited from earlier work.

Take `Cc1ncc[nH]1` [2-methylimidazole]: the pKa in data set [1] was roughly 7.9.

For `NCCCCCCCCCC(=O)N[C@@H](CO)C(=O)N[C@@H](CCCCN)C(=O)NCCC1CCCCC1` [Compound 10], in the data set with Leishmania NMT, the KM as substrate entry is recorded as “Not measurable”. In addition, in the data set on Leishmania NMT, the Vmax as substrate result is on record as “Not measurable”. Moreover, the substrate activity entry with Leishmania NMT is listed as “no substrate characteristics were detected”. Moreover, the IC50 at PfNMT was determined as 24300 ± 3400 nM; against HsNMT1, 60 ± 3 nM; on PvNMT [3], 680 ± 80 nM; in the data set with LdNMT (recombinant enzyme, mean of duplicate or triplicate experiments) it was 24 ± 3 nM. The “Vmax of substrate in presence of inhibitor” value at PvNMT [2] (0.6 μM compound 10) was 20701.0 ± 1047.4; on PvNMT [2] (1.2 μM compound 10), 19563.0 ± 1520.6; on PvNMT [2] (2.4 μM compound 10), 21120.3 ± 1651.4. For the same molecule, the mode of inhibition result at PvNMT [2] (kinetic studies, Fig. S3) is “peptide-competitive inhibitor”. In addition, the “potency against LdNMT, fold higher than 2 (1H-imidazol-1-yl)” value in the data set with LdNMT (relative to compound 2) was “over 400 fold”. In the data set with LdNMT (relative to compound 6), the “potency against LdNMT, fold higher than 6 (2-methyl-1H-imidazol-1-yl)” value is on record as greater than 20 fold.

For the molecule `NCCCC[C@H](NC(=O)[C@H](CO)NC(=O)CCCCCCNC(=O)CN)C(=O)NCCC1CCCCC1` [Compound 27], in the data set with Leishmania NMT, the Vmax as substrate is listed as 6596.4 ± 281.4 RFU.s-1, the Michaelis constant (Km) came to 1.3 µM and the substrate activity entry is on record as “substrate”.

Regarding `C[C@H](N)C(=O)NCCCCCCC(=O)N[C@@H](CO)C(=O)N[C@@H](CCCCN)C(=O)NCCC1CCCCC1` [Compound 28], in the data set with Leishmania NMT, the KM as substrate result is recorded as “Not measurable”, the Vmax as substrate result is given as “Not measurable” and the substrate activity entry is on record as “no detectable substrate activity”.

As for “GLYASKLS-NH2 [CaNMT octapeptide substrate]”, the Km in the data set on CaNMT was 0.6 µM.

Turning to GSNKSKPK-NH2 [reference compound], in the data set on Leishmania NMT, the Vmax as substrate was determined as 113616.7 ± 3962.0 RFU.s-1 and the Michaelis-Menten constant (Km) stood at 22.6 µM.
